This note sets out measurements from ChEMBL document CHEMBL1641370, “Novel 6,7,8,9-tetrahydro-5H-1,4,7,10a-tetraaza-cyclohepta[f]indene analogues as potent and selective 5-HT(2C) agonists for the treatment of metabolic disorders” (Bioorg Med Chem Lett, 2011).

Series [1] has as its target T1, 5-hydroxytryptamine receptor 2A (Homo sapiens, UniProt P28223). The experiment in a line: Agonist activity at human recombinant 5HT2A receptor expressed in CHOK1 cells assessed as induction of intracellular calcium release by FLIPR assay. The format is functional, cell-based, CHO-K1. On the technique in general: Calcium assays in cells follow changes in intracellular calcium, usually with a dye or a luminescent sensor.

The target of series [2] is T2, 5-hydroxytryptamine receptor 2B (Homo sapiens, UniProt P41595). As to the kind of experiment: Agonist activity at human recombinant 5HT2B receptor expressed in CHOK1 cells assessed as induction of intracellular calcium release by FLIPR assay. It counts as functional, cell-based, CHO-K1.
Series [3] concerns the target T1, 5-hydroxytryptamine receptor 2A. As to the kind of experiment: Agonist activity at human recombinant 5HT2A receptor expressed in CHOK1 cells assessed as induction of intracellular calcium release by FLIPR assay relative to 5-HT. The settings on record: CHO-K1. The format is functional, cell-based.
In series [4] the target is T3, 5-hydroxytryptamine receptor 2C (Homo sapiens, UniProt P28335).
T3 sequence (P28335 whole entry): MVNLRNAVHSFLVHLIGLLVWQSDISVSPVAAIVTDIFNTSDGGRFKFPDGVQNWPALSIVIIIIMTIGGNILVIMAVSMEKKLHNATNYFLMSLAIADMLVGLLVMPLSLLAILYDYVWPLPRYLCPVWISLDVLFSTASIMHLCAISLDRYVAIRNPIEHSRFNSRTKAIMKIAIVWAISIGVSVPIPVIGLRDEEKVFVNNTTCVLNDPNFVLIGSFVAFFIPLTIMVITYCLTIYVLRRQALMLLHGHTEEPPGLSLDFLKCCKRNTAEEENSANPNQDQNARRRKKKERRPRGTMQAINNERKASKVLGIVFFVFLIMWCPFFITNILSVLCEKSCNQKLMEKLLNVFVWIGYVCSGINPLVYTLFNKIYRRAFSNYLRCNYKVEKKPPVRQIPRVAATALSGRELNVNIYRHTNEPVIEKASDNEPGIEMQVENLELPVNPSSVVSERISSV
The experiment in a line: Agonist activity at human recombinant 5HT2C receptor expressed in CHOK1 cells assessed as induction of intracellular calcium release by FLIPR assay. The format is functional, cell-based, CHO-K1.

In series [5] the target is T2, 5-hydroxytryptamine receptor 2B. As to the kind of experiment: Agonist activity at human recombinant 5HT2B receptor expressed in CHOK1 cells assessed as induction of intracellular calcium release by FLIPR assay relative to 5-HT. The format is functional, cell-based. The following applies: CHO-K1.
Series [6] deals with T4, 5-hydroxytryptamine receptor 2C (Homo sapiens) (UniProt P28335).
T4 sequence (whole entry): T3 sequence (P28335 whole entry)
As to the kind of experiment: Agonist activity at human recombinant 5HT2C receptor expressed in CHOK1 cells assessed as induction of intracellular calcium release by FLIPR assay relative to 5-HT. The settings on record: CHO-K1. It counts as functional, cell-based.

Another series concerns Caco-2. As to the kind of experiment: Efflux ratio of permeability from […] of human Caco2 cells. It counts as ADME, cell-based.
In another series the target is hERG (KCNH2) (Homo sapiens, UniProt Q12809). As to the kind of experiment: Inhibition of human ERG expressed in CHO cells at 10 uM by whole cell patch-clamp technique. The format is cell-based. The settings on record: CHO cells expressing human ERG. (The patch-clamp technique gives a direct electrical read-out from membranes.)
The nature of series [7]: Permeability from apical to basolateral side of human Caco2 cells. The format is ADME, cell-based. The following applies: caco-2, read-out: permeability. On the technique in general: Caco-2 cells form a polarised layer with tight junctions and transporters.
For series [8], the system named is Rattus norvegicus. As to the kind of experiment: Dose normalized AUC in Wistar rat at 30 mg/kg, po. Set-up: dose 30 mg/kg, route oral. The following applies: in vivo. It counts as ADME, organism-based.
Series [9] deals with Rattus norvegicus. The experiment in a line: Antiobesity activity in Wistar rat cafteria diet model assessed as weight loss at 100 mg/kg, po after 3 day relative to control. The format is functional.
Series [10] is described as follows: Ratio of drug level in CSF to fraction unbound in plasma of Wistar rat at 30 mg/kg, po at 2 hrs. The format is ADME, organism-based. On the set-up: dose 30 mg/kg, route oral. The settings on record: in vivo.
Series [11] deals with Rattus norvegicus. As to the kind of experiment: Antiobesity activity in Wistar rat cafteria diet model assessed as weight loss at 30 mg/kg, po after 3 day relative to control. It counts as functional.
Series [12] is described as follows: Clearance in Wistar rat at 10 mg/kg, iv and 30 mg/kg, po. It counts as ADME, organism-based. The settings on record: in vivo.
Series [13] is described as follows: Mean residence time in Wistar rat at 30 mg/kg, po. The format is ADME, organism-based. Set-up: dose 30 mg/kg, route oral. The settings on record: in vivo.
A short description of series [14]: Mean residence time in Wistar rat at 10 mg/kg, iv. The format is ADME, organism-based. Set-up: dose 10 mg/kg, route intravenous. The following applies: in vivo.
Series [15] can be described thus: Volume of distribution at steady state in Wistar rat at 10 mg/kg, iv and 30 mg/kg, po. It counts as ADME, organism-based. The following applies: in vivo, read-out: Vdss.
Another series is filed under the species Homo sapiens. As to the kind of experiment: Selectivity ratio of EC50 for human recombinant 5HT2B receptor to EC50 for human recombinant 5HT2C receptor.
The target of series [16] is Serotonin 2 receptors; 5-HT2a & 5-HT2c (Homo sapiens) (UniProt P28223+P28335). As to the kind of experiment: Selectivity ratio of EC50 for human recombinant 5HT2A receptor to EC50 for human recombinant 5HT2C receptor.
Sequence of Serotonin 2 receptors; 5-HT2a & 5-HT2c (Homo sapiens) (P28223 whole entry, looked up, one chain of several): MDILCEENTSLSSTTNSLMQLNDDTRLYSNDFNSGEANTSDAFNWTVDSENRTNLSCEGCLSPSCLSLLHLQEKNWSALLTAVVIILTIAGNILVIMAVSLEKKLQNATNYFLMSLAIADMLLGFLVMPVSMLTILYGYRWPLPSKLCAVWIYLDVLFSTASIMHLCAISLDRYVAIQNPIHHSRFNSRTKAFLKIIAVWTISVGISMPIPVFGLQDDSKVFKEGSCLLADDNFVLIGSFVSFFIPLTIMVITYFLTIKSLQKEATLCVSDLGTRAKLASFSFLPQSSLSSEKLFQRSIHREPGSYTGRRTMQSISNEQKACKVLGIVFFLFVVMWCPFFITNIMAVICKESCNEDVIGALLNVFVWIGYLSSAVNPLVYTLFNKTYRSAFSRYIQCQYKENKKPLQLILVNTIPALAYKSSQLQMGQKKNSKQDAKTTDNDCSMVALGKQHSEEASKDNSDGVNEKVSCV

T2 sequence (P41595 whole entry): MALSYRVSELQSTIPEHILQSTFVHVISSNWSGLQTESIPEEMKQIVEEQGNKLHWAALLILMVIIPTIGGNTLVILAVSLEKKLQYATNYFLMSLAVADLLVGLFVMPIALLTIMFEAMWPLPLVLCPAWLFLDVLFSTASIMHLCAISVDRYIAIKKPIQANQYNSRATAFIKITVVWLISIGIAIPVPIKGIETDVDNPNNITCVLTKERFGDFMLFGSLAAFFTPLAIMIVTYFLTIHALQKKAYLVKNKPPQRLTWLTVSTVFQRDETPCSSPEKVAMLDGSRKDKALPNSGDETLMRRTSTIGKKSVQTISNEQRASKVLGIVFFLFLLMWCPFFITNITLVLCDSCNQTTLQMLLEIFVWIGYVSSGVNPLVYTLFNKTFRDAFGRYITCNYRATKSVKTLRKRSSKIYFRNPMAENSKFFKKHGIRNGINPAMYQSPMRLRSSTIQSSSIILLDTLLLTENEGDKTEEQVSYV
T1 sequence (P28223 whole entry): as the sequence (P28223 whole entry, looked up, one chain of several) above
Sequence of hERG (KCNH2) (Q12809 whole entry): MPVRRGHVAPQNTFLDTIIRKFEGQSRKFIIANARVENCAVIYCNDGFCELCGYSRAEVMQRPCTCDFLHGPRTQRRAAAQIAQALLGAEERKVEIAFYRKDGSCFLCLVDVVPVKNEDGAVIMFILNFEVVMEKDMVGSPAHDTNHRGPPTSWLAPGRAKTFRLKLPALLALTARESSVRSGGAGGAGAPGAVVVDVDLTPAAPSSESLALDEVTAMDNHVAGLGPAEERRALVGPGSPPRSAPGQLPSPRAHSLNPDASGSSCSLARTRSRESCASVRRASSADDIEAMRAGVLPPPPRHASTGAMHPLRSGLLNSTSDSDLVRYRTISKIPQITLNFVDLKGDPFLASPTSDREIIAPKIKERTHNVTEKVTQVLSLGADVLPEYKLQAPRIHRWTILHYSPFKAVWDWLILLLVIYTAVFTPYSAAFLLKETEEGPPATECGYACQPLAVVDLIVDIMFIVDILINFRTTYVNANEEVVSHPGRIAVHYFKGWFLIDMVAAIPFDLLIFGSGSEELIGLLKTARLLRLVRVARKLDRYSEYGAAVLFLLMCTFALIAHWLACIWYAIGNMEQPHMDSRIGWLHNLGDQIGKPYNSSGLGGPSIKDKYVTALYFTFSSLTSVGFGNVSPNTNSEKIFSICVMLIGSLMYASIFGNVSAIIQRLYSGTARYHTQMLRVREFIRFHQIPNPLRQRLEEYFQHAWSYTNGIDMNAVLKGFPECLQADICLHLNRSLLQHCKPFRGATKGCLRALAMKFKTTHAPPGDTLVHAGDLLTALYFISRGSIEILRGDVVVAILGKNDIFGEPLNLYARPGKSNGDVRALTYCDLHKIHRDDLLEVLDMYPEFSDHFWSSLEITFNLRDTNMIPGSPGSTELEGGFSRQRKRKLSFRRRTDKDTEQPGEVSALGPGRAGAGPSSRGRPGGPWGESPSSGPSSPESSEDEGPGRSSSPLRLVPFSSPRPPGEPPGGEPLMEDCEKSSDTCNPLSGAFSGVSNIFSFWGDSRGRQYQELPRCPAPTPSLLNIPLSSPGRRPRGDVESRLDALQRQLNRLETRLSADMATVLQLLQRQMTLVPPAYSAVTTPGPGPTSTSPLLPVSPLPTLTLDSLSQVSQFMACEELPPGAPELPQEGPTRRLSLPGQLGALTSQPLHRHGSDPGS

As to `c1cc2nc3c(c(N4CCCCC4)n2n1)CCNCC3`, the EC50 (commonly the concentration that produces a half-maximal response) amounted to 585 nM in [1], 2850 nM in series [2] and 4560 nM in series [4]. The figures for the Emax in series [3], in series [5] and in series [6] were 10%, 28% and 139%, respectively.

Consider `CCNc1c2c(nc3ccnn13)CCNCC2`, for which the EC50 was 138 nM in series [1], 602 nM in [2] and 63 nM in series [4]. The Emax (as a rule, the maximal effect, on the per cent scale that the assay sets) in series [3] worked out at 62%; in [5], 97%; in [6] it was 104%.

Regarding `c1cc2nc3c(c(N4CCCC4)n2n1)CCNCC3`, the EC50 in [1] was determined as 2310 nM; in series [2] it was 2240 nM; in [4], 764 nM. Also, the Emax stood at 15% in series [3], 36% in [5] and 110% in [6].

For `c1ccc(OC2CN(c3c4c(nc5ccnn35)CCNCC4)C2)cc1`, the results for the EC50 in [1], in series [2] and in [4] were 7770 nM, 218 nM and 18 nM, respectively. Further, the values for the Emax in series [3], in series [5] and in series [6] were 22%, 58% and 95%, respectively. In addition, in the series with Caco-2, the Ratio turned out to be 2.3. Moreover, at 10 µM the inhibition at hERG (KCNH2) was 81%. In addition, the Papp A→B in [7] was determined as 13.3 ×10⁻⁶ cm/s.

Turning to `COc1ccc(OC2CN(c3c4c(nc5ccnn35)CCNCC4)C2)cc1`, the AUC (usually the area under the concentration-time curve, a measure of exposure) in the series with Rattus norvegicus [8] is 0.72 µM·h. Moreover, the EC50 in series [1] was found to be 2630 nM; in [2] it was 503 nM; in series [4], 95 nM. Also, the Activity turned out to be 3.3% in the series on Rattus norvegicus [9] and 3.2% with Rattus norvegicus [11]. Further, the values for the Ratio (in series [10]; with Caco-2) were 0.15 and 1.3, respectively. The Emax in series [3] was determined as 21%; in series [5], 31%; in series [6] it was 76%. In series [12], the clearance turned out to be 14 mL/min/kg. Besides, the inhibition – broadly, how much of the control response was suppressed – at 10 µM against hERG (KCNH2) was 93%. Moreover, the MRT (as a rule, a mean duration of stay, worked out from the concentration-time curve) was over 24 h in [13] and 13 h in [14]. For the same molecule, in series [7], the Papp A→B was 10.4 ×10⁻⁶ cm/s. The Vd in [15] was determined as 11 L/kg.

Take `c1cc2nc3c(c(N4CCC4)n2n1)CCNCC3`: the EC50 was determined as 2350 nM in series [1], 94 nM in series [2] and 5.4 nM in series [4]. The values for the Emax in [3], in series [5] and in [6] were 51%, 97% and 103%, respectively. Also, the Ratio EC50 in the series filed under Homo sapiens was under 20; in [16], over 100.

On to `c1ccc(OC2CN(c3c4c(nc5ccnn35)CCNCC4)C2)nc1`, for which the figures for the EC50 in series [1], in [2] and in [4] were 5170 nM, 706 nM and 37 nM, respectively. Also, the results for the Emax in series [3], in [5] and in series [6] were 29%, 71% and 93%, respectively. In addition, the Ratio with Caco-2 amounted to 2.2. Further, the inhibition at 10 µM on hERG (KCNH2) came to 78%. For the same molecule, the Papp A→B in series [7] was found to be 10.3 ×10⁻⁶ cm/s.

In the case of `c1cncc(OC2CN(c3c4c(nc5ccnn35)CCNCC4)C2)c1`, the EC50 in series [1] worked out at 63 nM; in [2] it was 1480 nM; in series [4] it was 211 nM. In addition, the Emax in [3] was determined as 94%; in [5], 73%; in series [6], 99%.

For `Fc1cccc(OC2CN(c3c4c(nc5ccnn35)CCNCC4)C2)c1`, the results for the EC50 in series [1], in series [2] and in series [4] were 32 nM, 13 nM and 25 nM, respectively. In addition, the figures for the Emax in series [3], in series [5] and in [6] were 5%, 23% and 78%, respectively. Moreover, the Ratio in the series on Caco-2 worked out at 1.6. The molecule further gave an inhibition at 10 µM on hERG (KCNH2) of 93%. Also, the Papp A→B in series [7] turned out to be 7.9 ×10⁻⁶ cm/s.

Consider `O=C1Cc2cc(OC3CN(c4c5c(nc6ccnn46)CCNCC5)C3)ccc2N1`, for which the EC50 came out at 762 nM in series [1], 73 nM in [2] and 8.4 nM in [4]. Besides, the Emax came out at 86% in [3], 82% in series [5] and 99% in [6]. This molecule also returned an inhibition at 10 µM against hERG (KCNH2) of 11%.

As to `Fc1ccc(OC2CN(c3c4c(nc5ccnn35)CCNCC4)C2)cc1`, the EC50 came out at 3 nM in series [1], 163 nM in [2] and 23 nM in [4]. In addition, the Emax in [3] came to 8%; in [5], 43%; in series [6], 95%. Besides, at hERG (KCNH2), at 10 µM the inhibition was 95%.

In the case of `COc1ccccc1OC1CN(c2c3c(nc4ccnn24)CCNCC3)C1`, the figures for the EC50 in series [1], in [2] and in [4] were 2680 nM, 379 nM and 84 nM, respectively. Besides, the Emax in series [3] worked out at 48%; in series [5] it was 89%; in series [6], 84%. The molecule further gave an inhibition at 10 µM on hERG (KCNH2) of 88%.

In the case of `CCN(C)c1c2c(nc3ccnn13)CCNCC2`, the EC50 in [2] is 842 nM; in series [4] it was 362 nM. The results for the Emax in [5] and in series [6] were 69% and 105%, respectively.

For the molecule `c1cc(OC2CN(c3c4c(nc5ccnn35)CCNCC4)C2)ccn1`, the figures for the EC50 in series [1], in series [2] and in series [4] were 1230 nM, 1160 nM and 574 nM, respectively. Further, the Emax was determined as 27% in series [3], 79% in series [5] and 102% in series [6].

Regarding `CC(=O)N(C)c1ccc(OC2CN(c3c4c(nc5ccnn35)CCNCC4)C2)cc1`, the EC50 in series [1] worked out at 2050 nM; in series [2], 1180 nM; in series [4], 188 nM. For the same molecule, the results for the maximal response (Emax) in series [3], in series [5] and in series [6] were 35%, 60% and 96%, respectively. Also, the Ratio in the series with Caco-2 is 6.9. Also, testing at 10 µM against hERG (KCNH2) gave an inhibition of 5%. Moreover, the Papp A→B in series [7] turned out to be 0.62 ×10⁻⁶ cm/s.

Regarding `COc1cccc(OC2CN(c3c4c(nc5ccnn35)CCNCC4)C2)c1`, the EC50 in series [1] is 40 nM; in series [2] it was 215 nM; in series [4], 65 nM. Further, the Emax in [3] is 9%; in series [5], 43%; in series [6] it was 88%. Further, the Ratio in the series on Caco-2 came out at 2.1. The inhibition at 10 µM at hERG (KCNH2) stood at 97%. In [7], the Papp A→B came to 10.1 ×10⁻⁶ cm/s.

In the case of `Fc1ccccc1OC1CN(c2c3c(nc4ccnn24)CCNCC3)C1`, the EC50 in series [1] was 648 nM; in [2] it was 94 nM; in series [4] it was 5 nM. Further, the figures for the Emax in series [3], in [5] and in [6] were 15%, 69% and 85%, respectively.
